From ChEMBL document CHEMBL4706640, “Structure-Based Drug Design and Synthesis of PI3Kα-Selective Inhibitor (PF-06843195)” (J Med Chem, 2021)
≈ marks a conversion by molar mass, not a printed value. Calls of active or inactive are those of the source. The rule behind the calls is not given here.

Key:
Rat1 [1] = assay: Selectivity index, ratio of IC50 for recombinant human N-terminal Myr signal and C-terminal Flag-tagged PI3K p110delta to IC50 for recombinant human N-terminal Myr signal and C-terminal Flag-tagged PI3K p110alpha expressed in rat Rat1 cells; format: cell-based
[2] = Kinetic solubility of compound; format: physicochemical; settings: read-out: Kinetic_solubility
Rat1 [3] = assay: Selectivity index, ratio of IC50 for recombinant human N-terminal Myr signal and C-terminal Flag-tagged PI3K p110beta to IC50 for recombinant human N-terminal Myr signal and C-terminal Flag-tagged PI3K p110alpha expressed in rat Rat1 cells; format: cell-based
Homo sapiens [4] = species on record: Homo sapiens; assay: Selectivity index, ratio of Ki for recombinant human PI3K p110delta/p85alpha to Ki for recombinant human full-length PI3K p110alpha/p85alpha (322 to 600) using phosphatidylinositol 4,5-bisphosphate as substrate
[5] = biological target: Phosphatidylinositol 4,5-bisphosphate 3-kinase catalytic subunit alpha isoform (Homo sapiens, UniProt P42336); assay: Inhibition of recombinant human N-terminal Myr signal and C-terminal Flag-tagged PI3K p110alpha expressed in rat Rat1 cells; format: cell-based
Sequence of Phosphatidylinositol 4,5-bisphosphate 3-kinase catalytic subunit alpha isoform (P42336 whole entry, canonical isoform): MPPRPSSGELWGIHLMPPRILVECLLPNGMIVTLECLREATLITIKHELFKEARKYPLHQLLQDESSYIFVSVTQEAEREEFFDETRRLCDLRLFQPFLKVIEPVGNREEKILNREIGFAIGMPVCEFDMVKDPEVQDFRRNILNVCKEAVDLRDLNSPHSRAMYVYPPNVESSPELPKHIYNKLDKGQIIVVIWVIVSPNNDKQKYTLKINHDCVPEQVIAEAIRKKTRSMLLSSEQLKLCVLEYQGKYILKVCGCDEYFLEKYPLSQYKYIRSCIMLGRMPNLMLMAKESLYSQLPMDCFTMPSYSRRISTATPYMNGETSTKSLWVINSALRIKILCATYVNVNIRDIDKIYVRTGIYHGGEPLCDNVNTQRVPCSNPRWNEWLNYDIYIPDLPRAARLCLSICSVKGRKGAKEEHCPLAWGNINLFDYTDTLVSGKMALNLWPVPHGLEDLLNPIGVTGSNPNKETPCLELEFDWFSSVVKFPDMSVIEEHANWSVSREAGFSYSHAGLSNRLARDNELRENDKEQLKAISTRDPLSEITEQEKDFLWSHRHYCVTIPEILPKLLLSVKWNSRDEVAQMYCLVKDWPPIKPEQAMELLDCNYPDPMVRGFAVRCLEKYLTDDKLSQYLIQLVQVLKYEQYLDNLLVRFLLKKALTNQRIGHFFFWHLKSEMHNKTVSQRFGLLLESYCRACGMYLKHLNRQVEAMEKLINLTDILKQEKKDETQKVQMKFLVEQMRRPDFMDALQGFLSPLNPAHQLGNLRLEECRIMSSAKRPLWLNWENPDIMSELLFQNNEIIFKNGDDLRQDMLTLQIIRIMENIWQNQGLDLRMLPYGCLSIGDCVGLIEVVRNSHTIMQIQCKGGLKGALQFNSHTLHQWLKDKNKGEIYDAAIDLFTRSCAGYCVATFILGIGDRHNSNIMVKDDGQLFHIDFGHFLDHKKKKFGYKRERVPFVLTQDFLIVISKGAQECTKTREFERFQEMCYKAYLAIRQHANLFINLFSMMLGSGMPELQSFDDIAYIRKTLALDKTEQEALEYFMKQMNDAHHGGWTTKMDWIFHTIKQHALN

[6] = biological target: PI3-kinase p110-delta/p85-alpha (Homo sapiens, UniProt O00329); assay: Inhibition of recombinant human PI3K p110delta/p85alpha using phosphatidylinositol 4,5-bisphosphate as substrate preincubated for 15 mins followed by addition of ATP and measured after 30 mins by fluorescence polarisation assay; format: protein-complex assay
Sequence of PI3-kinase p110-delta/p85-alpha (P27986 whole entry, one chain of several, canonical isoform): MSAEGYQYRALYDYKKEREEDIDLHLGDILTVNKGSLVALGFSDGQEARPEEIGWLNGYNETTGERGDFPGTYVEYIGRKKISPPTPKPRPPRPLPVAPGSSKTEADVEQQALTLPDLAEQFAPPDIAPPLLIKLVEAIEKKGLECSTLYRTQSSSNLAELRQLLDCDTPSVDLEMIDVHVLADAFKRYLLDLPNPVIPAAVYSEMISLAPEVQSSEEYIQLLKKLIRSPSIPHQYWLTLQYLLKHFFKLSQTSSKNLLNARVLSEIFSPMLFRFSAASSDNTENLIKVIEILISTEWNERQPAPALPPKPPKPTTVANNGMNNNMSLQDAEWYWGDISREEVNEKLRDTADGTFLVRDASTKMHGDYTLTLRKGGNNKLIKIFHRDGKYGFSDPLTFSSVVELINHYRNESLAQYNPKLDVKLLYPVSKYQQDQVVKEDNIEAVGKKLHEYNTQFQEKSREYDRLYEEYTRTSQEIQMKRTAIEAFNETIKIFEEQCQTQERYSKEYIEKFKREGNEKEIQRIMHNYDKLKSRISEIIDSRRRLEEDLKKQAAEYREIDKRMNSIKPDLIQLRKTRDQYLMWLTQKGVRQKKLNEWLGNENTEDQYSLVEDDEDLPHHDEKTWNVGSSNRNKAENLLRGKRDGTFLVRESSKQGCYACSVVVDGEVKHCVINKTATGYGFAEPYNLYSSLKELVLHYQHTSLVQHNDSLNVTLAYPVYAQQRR

[7] = biological target: T1, Phosphatidylinositol 4,5-bisphosphate 3-kinase catalytic subunit delta isoform (Homo sapiens, UniProt O00329); assay: Inhibition of recombinant human N-terminal Myr signal and C-terminal Flag-tagged PI3K p110delta expressed in rat Rat1 cells; format: cell-based
T1 sequence (O00329 whole entry): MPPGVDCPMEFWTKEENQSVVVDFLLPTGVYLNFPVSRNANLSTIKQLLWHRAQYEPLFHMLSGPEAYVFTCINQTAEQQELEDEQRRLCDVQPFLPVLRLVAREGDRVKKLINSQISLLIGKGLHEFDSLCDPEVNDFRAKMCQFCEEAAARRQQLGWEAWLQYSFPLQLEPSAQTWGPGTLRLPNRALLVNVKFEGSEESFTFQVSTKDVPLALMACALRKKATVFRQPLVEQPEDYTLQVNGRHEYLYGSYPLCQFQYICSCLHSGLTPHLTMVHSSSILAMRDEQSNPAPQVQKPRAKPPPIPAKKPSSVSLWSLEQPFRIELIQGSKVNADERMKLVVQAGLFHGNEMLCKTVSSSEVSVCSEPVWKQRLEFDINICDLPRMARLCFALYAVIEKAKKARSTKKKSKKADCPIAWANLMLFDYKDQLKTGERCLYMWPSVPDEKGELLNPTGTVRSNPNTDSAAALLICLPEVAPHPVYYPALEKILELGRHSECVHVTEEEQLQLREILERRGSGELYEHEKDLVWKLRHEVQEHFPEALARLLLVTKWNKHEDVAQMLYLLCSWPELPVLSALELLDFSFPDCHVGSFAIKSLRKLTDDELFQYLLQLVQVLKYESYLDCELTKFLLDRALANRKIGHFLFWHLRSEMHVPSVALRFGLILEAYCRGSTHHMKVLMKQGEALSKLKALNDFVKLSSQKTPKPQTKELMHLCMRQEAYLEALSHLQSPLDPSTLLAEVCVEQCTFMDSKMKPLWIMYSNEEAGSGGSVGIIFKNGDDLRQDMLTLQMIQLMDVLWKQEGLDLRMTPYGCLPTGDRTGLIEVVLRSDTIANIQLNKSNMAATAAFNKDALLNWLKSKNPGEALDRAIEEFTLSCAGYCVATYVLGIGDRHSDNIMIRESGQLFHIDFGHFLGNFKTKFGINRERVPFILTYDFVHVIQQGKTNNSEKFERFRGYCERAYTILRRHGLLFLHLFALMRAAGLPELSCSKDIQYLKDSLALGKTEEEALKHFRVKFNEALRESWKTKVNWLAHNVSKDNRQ

[8] = biological target: PI3-kinase p110-alpha/p85-alpha (Homo sapiens, UniProt P42336); assay: Inhibition of recombinant human full-length PI3K p110alpha/p85alpha (322 to 600) expressed in baculovirus infected Sf21 cells using phosphatidylinositol 4,5-bisphosphate as substrate preincubated for 15 mins followed by addition of ATP and measured after 30 mins by fluorescence polarisation assay
Sequence of PI3-kinase p110-alpha/p85-alpha (P27986 whole entry): as the sequence (P27986 whole entry, one chain of several, canonical isoform) above
Sequence of PI3-kinase p110-alpha/p85-alpha (P42336 whole entry): as the sequence (P42336 whole entry, canonical isoform) above

[9] = Distribution coefficient, logD of compound at pH 7.4; format: physicochemical; settings: octanol/water
[10] = Passive permeability of compound in RRCK cells; format: ADME, cell-based, Canis lupus familiaris, MDCKII-LE; settings: dog, MDCK; read-out: permeability
Homo sapiens [11] = species on record: Homo sapiens; assay: Selectivity index, ratio of Ki for recombinant human PI3K p110beta/p85alpha to Ki for recombinant human full-length PI3K p110alpha/p85alpha (322 to 600) using phosphatidylinositol 4,5-bisphosphate as substrate
PI3K p110 beta/p85 alpha = PI3K p110 beta/p85 alpha (Homo sapiens, UniProt P42338); assay: Inhibition of recombinant human PI3K p110beta/p85alpha using phosphatidylinositol 4,5-bisphosphate as substrate preincubated for 15 mins followed by addition of ATP and measured after 30 mins by fluorescence polarisation assay; format: protein-complex assay
Sequence of PI3K p110 beta/p85 alpha (P27986 whole entry, canonical isoform): as the sequence (P27986 whole entry, one chain of several, canonical isoform) above
Sequence of PI3K p110 beta/p85 alpha (P42338 whole entry, canonical isoform): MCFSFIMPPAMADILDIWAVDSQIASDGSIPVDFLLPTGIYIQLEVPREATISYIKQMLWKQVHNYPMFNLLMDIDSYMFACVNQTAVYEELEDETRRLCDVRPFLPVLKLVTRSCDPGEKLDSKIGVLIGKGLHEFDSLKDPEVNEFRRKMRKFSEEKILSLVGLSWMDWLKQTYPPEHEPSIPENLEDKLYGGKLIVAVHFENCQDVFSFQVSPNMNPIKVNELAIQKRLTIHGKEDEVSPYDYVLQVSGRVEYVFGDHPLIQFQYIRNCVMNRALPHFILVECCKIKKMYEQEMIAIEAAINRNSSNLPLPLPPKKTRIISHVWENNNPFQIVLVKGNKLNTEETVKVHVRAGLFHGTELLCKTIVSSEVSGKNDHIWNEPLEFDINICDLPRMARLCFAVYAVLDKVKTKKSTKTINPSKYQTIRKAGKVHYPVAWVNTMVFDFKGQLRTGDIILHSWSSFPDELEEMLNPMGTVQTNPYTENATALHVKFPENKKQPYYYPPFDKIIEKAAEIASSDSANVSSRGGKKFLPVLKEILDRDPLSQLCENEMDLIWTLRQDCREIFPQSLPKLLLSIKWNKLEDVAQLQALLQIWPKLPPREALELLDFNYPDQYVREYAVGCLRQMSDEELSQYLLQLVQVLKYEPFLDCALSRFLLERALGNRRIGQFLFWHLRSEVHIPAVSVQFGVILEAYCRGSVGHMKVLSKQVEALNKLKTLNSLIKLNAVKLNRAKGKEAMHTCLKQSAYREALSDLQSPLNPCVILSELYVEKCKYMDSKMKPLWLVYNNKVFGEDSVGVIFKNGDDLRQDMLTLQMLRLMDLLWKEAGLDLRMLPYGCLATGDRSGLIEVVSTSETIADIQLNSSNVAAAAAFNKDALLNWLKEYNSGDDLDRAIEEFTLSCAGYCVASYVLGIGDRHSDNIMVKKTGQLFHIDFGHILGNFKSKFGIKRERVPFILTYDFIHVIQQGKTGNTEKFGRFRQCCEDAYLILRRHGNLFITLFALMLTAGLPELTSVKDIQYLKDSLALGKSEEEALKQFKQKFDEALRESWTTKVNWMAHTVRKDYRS

[12] = biological target: Phosphatidylinositol 4,5-bisphosphate 3-kinase catalytic subunit beta isoform (Homo sapiens, UniProt P42338); assay: Inhibition of recombinant human N-terminal Myr signal and C-terminal Flag-tagged PI3K p110beta expressed in rat Rat1 cells; format: cell-based
Sequence of Phosphatidylinositol 4,5-bisphosphate 3-kinase catalytic subunit beta isoform (P42338 whole entry, canonical isoform): as above

[13] = Apparent intrinsic clearance in human liver microsomes; format: ADME, Microsome; settings: read-out: CLH(app)
[14] = Tmax in Wistar Han rat assessed as 2,2-difluoroethyl (3S)-3-{[2'-amino-5-fluoro-2-(morpholin-4-yl)-4,5'-bipyrimidin-6-yl]amino}-3-(hydroxymethyl)pyrrolidine-1-carboxylate level at […], po; format: ADME, organism-based; settings: in vivo
[15] = AUC (0 to t) in Wistar Han rat assessed as 2,2-difluoroethyl (3S)-3-{[2'-amino-5-fluoro-2-(morpholin-4-yl)-4,5'-bipyrimidin-6-yl]amino}-3-(hydroxymethyl)pyrrolidine-1-carboxylate level at […], po; format: ADME, organism-based; settings: in vivo
[16] = Cmax in Wistar Han rat assessed as 2,2-difluoroethyl (3S)-3-{[2'-amino-5-fluoro-2-(morpholin-4-yl)-4,5'-bipyrimidin-6-yl]amino}-3-(hydroxymethyl)pyrrolidine-1-carboxylate level at […], po; format: ADME, organism-based; settings: in vivo
[17] = AUC (0 to t) in Wistar Han rat assessed as 2,2-difluoroethyl (3S)-3-{[2'-amino-5-fluoro-2-(morpholin-4-yl)-4,5'-bipyrimidin-6-yl]amino}-3-(hydroxymethyl)pyrrolidine-1-carboxylate level at 2.3 mg/kg, iv; format: ADME, organism-based; design: dose 2.3 mg/kg; settings: in vivo
[18] = Volume of distribution at steady state in Wistar Han rat at 2.3 mg/kg, iv; format: ADME, organism-based; settings: in vivo, read-out: Vdss
MCF7 [19] = assay: Antitumor activity against human MCF7 cells xenografted in mouse model assessed as tumor growth regression in presence of fulvestrant and palbociclib; format: functional, cell-based
[20] = Oral bioavailability in Wistar Han rat at […]; format: ADME, organism-based; settings: in vivo
[21] = Thermodynamic solubility of compound at pH 7.4; format: physicochemical; settings: buffer, read-out: Therm_solubility
[22] = Cmax in Wistar Han rat at […], po; format: ADME, organism-based; settings: in vivo
MCF7 [23] = assay: Antitumor activity against human MCF7 cells xenografted in mouse model assessed as tumor growth regression in presence of palbociclib; format: functional, cell-based
[24] = Half life in rat intestinal S9 fraction assessed as 2,2-difluoroethyl (3S)-3-{[2'-amino-5-fluoro-2-(morpholin-4-yl)-4,5'-bipyrimidin-6-yl]amino}-3-(hydroxymethyl)pyrrolidine-1-carboxylate level by enzymatic hydrolysis assay; format: ADME, subcellular, Intestine
[25] = Plasma clearance in Wistar Han rat at 2.3 mg/kg, iv; format: ADME, organism-based
[26] = AUC (0 to t) in Wistar Han rat at 2.3 mg/kg, iv; format: ADME, organism-based; design: dose 2.3 mg/kg; settings: in vivo
MCF7 [27] = assay: Antitumor activity against human MCF7 cells xenografted in mouse model assessed as tumor growth regression in presence of fulvestrant; format: functional, cell-based
[28] = AUC (0 to t) in Wistar Han rat at […], po; format: ADME, organism-based; settings: in vivo
[29] = Half life in Wistar Han rat at 2.3 mg/kg, iv; format: ADME, organism-based; settings: in vivo
[30] = Half life in human intestinal S9 fraction assessed as 2,2-difluoroethyl (3S)-3-{[2'-amino-5-fluoro-2-(morpholin-4-yl)-4,5'-bipyrimidin-6-yl]amino}-3-(hydroxymethyl)pyrrolidine-1-carboxylate level by enzymatic hydrolysis assay; format: ADME, subcellular, Intestine
[31] = Tmax in Wistar Han rat at […], po; format: ADME, organism-based; settings: in vivo
MCF7 [32] = assay: Antitumor activity against human MCF7 cells xenografted in mouse model assessed as tumor growth inhibition; format: functional, cell-based
MDA-MB-361 = assay: Antitumor activity against human MDA-MB-361 cells xenografted in mouse model assessed as tumor growth inhibition; format: functional, cell-based
[33] = Kinetic solubility of compound at pH 7.4 after 24 hrs by LC/MS/MS analysis; format: physicochemical; settings: buffer, read-out: Kinetic_solubility

## CC(C)(C)OC(=O)N1CC[C@](C)(N2CCc3c(-c4cnc(N)nc4)nc(N4CCOCC4)nc32)C1
Rat1 [1]
  Ratio IC50: 14
[2]
  solubility kinetic: 97 µM (≈ 46.8 µg/mL)
Rat1 [3]
  Ratio IC50: 94
Homo sapiens [4]
  Ratio Ki: > 26
[5]
  IC50: 6.8 nM
[6]
  Ki: 0.46 nM
[7]
  IC50: 92 nM
[8]
  Ki: < 0.018 nM
[9]
  logD: 3.7
[10]
  Papp: 21 ×10⁻⁶ cm/s
Homo sapiens [11]
  Ratio Ki: > 1390
PI3K p110 beta/p85 alpha
  Ki: 25 nM
[12]
  IC50: 640 nM
[13]
  microsomal CLint: 160 µL/min/mg

## Nc1ncc(-c2nc(N3CCOCC3)nc(N[C@@]3(COP(=O)(O)O)CCN(C(=O)OCC(F)F)C3)c2F)cn1
[14]
  Tmax: 120 min
[15]
  AUCt: 1500 ng·h/mL
[16]
  Cmax: 290 ng/mL
[17]
  AUCt: 900 ng·h/mL
[18]
  Vd: 0.34 L/kg
MCF7 [19]
  Activity: Active
[20]
  bioavailability: 0.14%
[21]
  solubility thermodynamic: 6200 µg/mL (≈ 10.7 mM)
[22]
  Cmax: 4.3 ng/mL
MCF7 [23]
  Activity: Active
[24]
  t1/2: 86 min
[25]
  clearance: 89 mL/min/kg
[26]
  AUC(0-t): 430 ng·h/mL
MCF7 [27]
  Activity: Active
[28]
  AUC(0-t): 2.9 ng·h/mL
[29]
  half-life: 16.8 min
[30]
  t1/2: 14 min
[31]
  Tmax: 10.2 min
MCF7 [32]
  TGI: Active
MDA-MB-361
  TGI: Active
[33]
  solubility kinetic at 24 h: 310 µg/mL (≈ 0.536 mM)
